According to the supplement of paper PMC10307832:

Key:
Assay in all cases: relative viability (nuclei count vs DMSO), 5 days (fraction); higher = more cells survive
Tosedostat + OSI-027 = compound: CC(C)C[C@@H](C(=O)N[C@H](C(=O)OC1CCCC1)c1ccccc1)[C@H](O)C(=O)NO [Tosedostat] + COc1cccc2cc(-c3nc([C@H]4CC[C@H](C(=O)O)CC4)n4ncnc(N)c34)[nH]c12 [OSI-027] (partner 0.5 µM)
Outline: (§1)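 Medians of duplicate plates are given as relative viability. That measure is the nuclei count in treated wells divided by the count in vehicle wells. Counts were taken on 4× images of lung cancer cell lines in 1536-well plates, 5 days after pin-tool dosing the day after seeding with one drug alone or a fixed anchor-drug dose plus five library-drug doses (not always all listed) in √10 steps.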

Tosedostat + Crizotinib = compound: CC(C)C[C@@H](C(=O)N[C@H](C(=O)OC1CCCC1)c1ccccc1)[C@H](O)C(=O)NO [Tosedostat] + C[C@@H](Oc1cc(-c2cnn(C3CCNCC3)c2)cnc1N)c1c(Cl)ccc(F)c1Cl [Crizotinib] (partner 1 µM)
Outline: as §1

Tosedostat + Decitabine = compound: CC(C)C[C@@H](C(=O)N[C@H](C(=O)OC1CCCC1)c1ccccc1)[C@H](O)C(=O)NO [Tosedostat] + Nc1ncn([C@H]2C[C@H](O)[C@@H](CO)O2)c(=O)n1 [Decitabine] (partner 2 µM)
Outline: as §1

[1] = compound: CC1=NN=C(O1)C2=NN=C(C=C2)N3CCC(CC3)OC4=C(C=CC(=C4)F)Cl + COc1cccc2cc(-c3nc([C@H]4CC[C@H](C(=O)O)CC4)n4ncnc(N)c34)[nH]c12 [OSI-027] (partner 0.5 µM)
Outline: as §1

| Cell Line | relative viability (Tosedostat + OSI-027; first compound 0.02 µM) | relative viability (Tosedostat + OSI-027; first compound 0.06325 µM) | relative viability (Tosedostat + OSI-027; first compound 0.2 µM) | relative viability (Tosedostat + OSI-027; first compound 0.6325 µM) | relative viability (Tosedostat + OSI-027; first compound 2 µM) | relative viability (Tosedostat + Crizotinib; first compound 0.02 µM) | relative viability (Tosedostat + Crizotinib; first compound 0.06325 µM) | relative viability (Tosedostat + Crizotinib; first compound 0.2 µM) | relative viability (Tosedostat + Crizotinib; first compound 0.6325 µM) | relative viability (Tosedostat + Crizotinib; first compound 2 µM) | relative viability (Tosedostat + Decitabine; first compound 0.02 µM) | relative viability (Tosedostat + Decitabine; first compound 0.06325 µM) | relative viability (Tosedostat + Decitabine; first compound 0.2 µM) | relative viability (Tosedostat + Decitabine; first compound 0.6325 µM) | relative viability (Tosedostat + Decitabine; first compound 2 µM) | relative viability ([1]; first compound 0.253 µM) | relative viability ([1]; first compound 0.8 µM) | relative viability ([1]; first compound 2.53 µM) | relative viability ([1]; first compound 8 µM) |
| --- | --- | --- | --- | --- | --- | --- | --- | --- | --- | --- | --- | --- | --- | --- | --- | --- | --- | --- | --- |
| LC-2-ad | 1.03 | 0.756 | 0.758 | 0.698 | 0.645 | 0.47 | 0.454 | 0.493 | 0.378 | 0.348 | 0.777 | 0.776 | 0.83 | 0.746 | 0.811 | 0.689 | 0.678 | 0.632 | 0.682 |
| NCI-H2023 | 0.431 | 0.383 | 0.328 | 0.251 | 0.231 | 0.689 | 0.609 | 0.747 | 0.696 | 0.637 | 0.23 | 0.202 | 0.223 | 0.167 | 0.183 | 0.33 | 0.35 | 0.35 | 0.314 |
| NCI-H1793 | 0.264 | 0.271 | 0.293 | 0.258 | 0.24 | – | – | – | – | – | 0.429 | 0.435 | 0.407 | 0.222 | 0.346 | 0.253 | 0.2 | 0.296 | 0.276 |
| NCI-H2228 | 0.728 | 0.574 | 0.571 | 0.387 | 0.363 | 0.599 | 0.438 | 0.48 | 0.418 | 0.445 | – | – | – | – | – | 0.41 | 0.448 | 0.302 | 0.468 |
| NCI-H1299 | – | – | – | – | – | 1.05 | 0.919 | 0.933 | 0.926 | 0.873 | – | – | – | – | – | – | – | – | – |
| NCI-H522 | 0.842 | 0.82 | 0.819 | 0.916 | 0.79 | – | – | – | – | – | 0.594 | 0.619 | 0.639 | 0.578 | 0.72 | 0.725 | 0.659 | 0.699 | 0.693 |
| NCI-H1703 | – | – | – | – | – | 1.15 | 0.643 | 0.548 | 0.38 | 0.597 | – | – | – | – | – | – | – | – | – |
| NCI-H1648 | 0.28 | 0.268 | 0.262 | 0.242 | 0.267 | – | – | – | – | – | 0.389 | 0.426 | 0.51 | 0.421 | 0.399 | 0.256 | 0.253 | 0.279 | 0.271 |
| NCI-H2342 | 0.627 | 0.708 | 0.632 | 0.576 | 0.599 | – | – | – | – | – | 0.713 | 0.688 | 0.718 | 0.692 | 0.689 | 0.57 | 0.531 | 0.515 | 0.522 |
| SW 900 | 0.619 | 0.505 | 0.544 | 0.476 | 0.322 | – | – | – | – | – | 0.463 | 0.499 | 0.405 | 0.359 | 0.415 | – | – | 0.637 | 0.41 |
| NCI-H1395 | 0.59 | 0.618 | 0.644 | 0.672 | 0.621 | – | – | – | – | – | 0.888 | 0.689 | 0.715 | 0.624 | 0.622 | 0.641 | 0.588 | 0.639 | 0.595 |
| A549 | – | – | – | – | – | 0.869 | 0.726 | 0.702 | 0.652 | 0.683 | 0.264 | 0.337 | 0.24 | 0.193 | 0.292 | – | – | – | – |
